Experiments:
[1] = system: Pfu fusion DNA polymerase; assay: Endpoint PCR with Pfu fusion DNA polymerase, detergent/surfactant added to detergent-free PCR buffer; assay type: biochemical, Pyrococcus furiosus
Pfu DNA polymerase = molecular target: T1, Pfu DNA polymerase (Pyrococcus furiosus, UniProt P61875); assay: Endpoint PCR with Pfu DNA polymerase, detergent/surfactant added to detergent-free PCR buffer; assay type: biochemical
T1 sequence (P61875 1-775): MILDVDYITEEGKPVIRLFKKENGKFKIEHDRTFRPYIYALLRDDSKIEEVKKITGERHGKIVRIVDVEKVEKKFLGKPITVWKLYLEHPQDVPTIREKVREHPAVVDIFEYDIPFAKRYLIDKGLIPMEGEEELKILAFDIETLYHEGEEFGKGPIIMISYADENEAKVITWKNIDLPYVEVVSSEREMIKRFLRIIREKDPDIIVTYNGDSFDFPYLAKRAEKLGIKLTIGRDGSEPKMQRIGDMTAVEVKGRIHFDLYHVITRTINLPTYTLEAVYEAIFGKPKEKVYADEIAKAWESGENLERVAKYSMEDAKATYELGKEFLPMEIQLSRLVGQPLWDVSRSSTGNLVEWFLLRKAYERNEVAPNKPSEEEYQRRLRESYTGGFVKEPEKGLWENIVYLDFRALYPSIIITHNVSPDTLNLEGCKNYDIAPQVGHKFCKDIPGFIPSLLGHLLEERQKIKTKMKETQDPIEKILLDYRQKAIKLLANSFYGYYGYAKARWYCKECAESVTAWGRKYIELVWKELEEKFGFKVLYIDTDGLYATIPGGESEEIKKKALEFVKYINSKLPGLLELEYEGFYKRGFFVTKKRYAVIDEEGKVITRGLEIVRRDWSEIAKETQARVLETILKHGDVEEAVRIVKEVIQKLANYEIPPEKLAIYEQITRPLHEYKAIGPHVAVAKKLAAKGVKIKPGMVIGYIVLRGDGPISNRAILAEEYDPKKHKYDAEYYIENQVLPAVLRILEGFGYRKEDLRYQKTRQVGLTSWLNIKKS
Procedure: Pfu (exo+ and exo−) fusion DNA polymerase (e.g., as described in U.S. patent application Ser. No.: 11/488,535, filed Jul. 17, 2006, and herein incorporated by reference in its entirety), cPfu DNA polymerase (Stratagene catalog #600154), and PEF were purified using standard production protocols (no detergent present), except that non-ionic detergents were omitted from the final storage buffers. Enzymes were stored at −20° C. in 50 mM Tris-HCl (pH 8.2), 0.1 mM EDTA, 1 mM DTT, and 50% glycerol. DNA polymerase storage buffers were additionally supplemented with one or more zwitterionic detergents, in percentages (v/v) ranging from 0.05% to 0.5%.
PCR reaction buffers were prepared without non-ionic detergents (“DF buffer”, detergent-free buffer). For example, 1× cPfu DF-buffer contains 10 mM KCl, 10 mM (NH4)2SO4, 20 mM Tris HCl (pH 8.8), 2 mM MgSO4, and 100 ug/ml BSA. Detergent-free versions of Pfu fusion buffers were also prepared, and consisted of: 40 mM Tris-SO4 (pH 10), 15 mM K2SO4, 8 mM (NH4)2SO4, 2 mM MgSO4 (1× Pfu fusion DF-buffer I) or 30 mM Tris-SO4 (pH 10), 40 mM K2SO4, 1.5 mM (NH4)2SO4, 2 mM MgSO4 (1× Pfu fusion DF-buffer II).
PCR reaction buffers were supplemented with 0.1% Triton X100 (non-ionic detergent) or with one or more zwitterionic detergents or non-detergent surfactants. For example, zwitterionic detergents CHAPS, CHAPSO, 3-10, and 3-12 were obtained from AnaTrace, Inc. (Maumee, Ohio) and added to DF-buffers in percentages (v/v) ranging from 0.05% to 0.5%. The non-detergent surfactant, Surfynol 465, was purchased from Air Products and used in a similar fashion.
For the 0.9 kb and 6 kb systems, PCR reactions (50 ul) were conducted with 40 ng cPfu DNA polymerase in IX cPfu DF-buffer or with 28 ng or 224 ng Pfu fusion DNA polymerase in 1× Pfu fusion DF-buffer I or DF-buffer II, respectively. PCR reactions also contained 2 U/50 ul Pyrococcus furiosus dUTPase (PEF), 100 ng of human genomic DNA, 250 uM each dNTP, and 100 ng of each primer. For the 9 kb system, PCR reactions (50 ul) consisted of 80 ng Pfu, 1.5× cPfu DF-buffer, 2U Pyrococcus furiosus dUTPase (PEF), 200 ng of human genomic DNA, 500 uM each dNTP, and 200 ng of each primer. PCR reaction buffers were supplemented with 0.1% Triton X100 or with zwitterionic detergent(s).

[2] = system: Pfu and Pfu fusion DNA polymerase; assay: Endpoint PCR, enhancing detergents and detergent combinations (Table 2); assay type: biochemical, Pyrococcus furiosus
[3] = system: Pfu fusion DNA polymerase; assay: Accelerated stability study of Pfu fusion DNA polymerase in storage buffer, residual activity by 0.9 kb PCR; assay type: biochemical, Pyrococcus furiosus; conditions: detergent in storage buffer
Procedure: Accelerated stability studies were performed to illustrate the stabilizing effects of zwitterionic detergents. Pfu fusion DNA polymerase was purified in the absence of detergents and then diluted to 28 ng/ul in storage buffer lacking detergent or storage buffers containing either conventional non-ionic detergent (0.1% Igepal/0.1% Triton X100) or various zwitterionic detergents. Protein samples were stored at −20° C. or were heated at 95° C. for varying lengths of time. Residual activity was assayed by amplifying a 0.9 kb genomic target in PCR in fusion DF-buffer supplemented with either 0.1% Triton X100 or 0.1% CHAPSO/0.1% Anzergent 3-12.

[4] = system: Pfu fusion DNA polymerase; assay: SYBR Green QPCR with Pfu fusion DNA polymerase; assay type: biochemical, Pyrococcus furiosus
Procedure: QPCR reactions contained DNA or cDNA template, varying amounts of primer (see Table 3 below), 300 uM each dNTP, 4 ng/ul exo Pfu fusion, 6 ng/ul hot start IgG, 0.4ng/ul single-stranded DNA-binding protein, 1× Pfu fusion DF-buffer II (pH 9), 4% DMSO, and 8% glycerol. QPCR reactions were supplemented with 0.1% Triton X100 or zwitterionic detergent, and with 0.5× SYBR Green (Molecular Probes S-7567). Reactions were cycled on the MX3000P Real-Time PCR System using the following conditions: (1 cycle) 95° C. 5 min; (40 cycles) 95° C. 10 sec, 60° C. 30 sec.

Taq DNA polymerase = Taq DNA polymerase (Thermus aquaticus, UniProt P19821); conditions: disclosed in U.S. Pat. No. 6,127,155; cited from earlier work
Sequence of Taq DNA polymerase (P19821 whole entry): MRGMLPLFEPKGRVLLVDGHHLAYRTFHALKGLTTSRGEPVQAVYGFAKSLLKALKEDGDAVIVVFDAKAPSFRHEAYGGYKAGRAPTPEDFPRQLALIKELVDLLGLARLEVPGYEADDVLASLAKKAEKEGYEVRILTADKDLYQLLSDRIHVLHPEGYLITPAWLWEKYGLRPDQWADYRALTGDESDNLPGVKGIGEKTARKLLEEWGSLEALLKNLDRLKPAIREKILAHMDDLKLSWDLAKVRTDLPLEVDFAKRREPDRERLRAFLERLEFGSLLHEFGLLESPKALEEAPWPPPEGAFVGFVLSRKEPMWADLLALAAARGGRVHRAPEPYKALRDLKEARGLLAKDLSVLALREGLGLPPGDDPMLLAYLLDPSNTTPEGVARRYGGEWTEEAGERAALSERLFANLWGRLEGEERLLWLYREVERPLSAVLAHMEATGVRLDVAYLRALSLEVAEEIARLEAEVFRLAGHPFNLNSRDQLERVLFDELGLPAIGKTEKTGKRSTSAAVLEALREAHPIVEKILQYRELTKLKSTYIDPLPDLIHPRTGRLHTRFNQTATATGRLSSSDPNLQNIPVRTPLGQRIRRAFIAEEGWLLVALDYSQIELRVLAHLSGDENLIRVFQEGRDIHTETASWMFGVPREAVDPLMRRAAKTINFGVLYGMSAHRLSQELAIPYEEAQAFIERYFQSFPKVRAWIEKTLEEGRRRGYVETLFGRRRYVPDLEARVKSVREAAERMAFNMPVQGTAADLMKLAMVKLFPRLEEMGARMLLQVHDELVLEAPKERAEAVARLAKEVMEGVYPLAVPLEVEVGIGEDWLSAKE

[5] = 0.05% of the individual detergent

Compound	PCR amplification with detergent alone (FIG. 2) [1, 5]	PCR product with detergent alone (FIG. 3) [1, 5]	detergent concentration at which amplifications generated product yields (FIG. 1) ([1]; individual detergent in fusion PCR buffer, genomic DNA targets, no product in absence of detergent)	effectiveness relative to CHAPS and Anzergent 3-10 (FIG. 5) (Pfu DNA polymerase; CHAPSO 0.05-0.2%, Anzergent 3-12 0.1-0.2%, in PCR buffer)	product yields on addition of zwitterionic detergent to PCR buffer (FIG. 5) (Pfu DNA polymerase; versus buffer lacking detergent, which failed to generate product)	Effective range, concentration of each detergent in combination ([2]; combination CHAPS (0.05-0.5%) + CHAPSO (0.05-0.3%))	Optimal range, concentration of each detergent in combination ([2]; combination CHAPSO (0.1%) + Anz. 3-10 (0.05-0.4%))	Effective range, concentration of each detergent in combination ([2]; combination CHAPSO (0.1%) + Anz. 3-10 (0.05-0.5%))	Effective range, Detergent 1 (single detergent) ([2]; endpoint PCR, detergent alone)	Optimal range, Detergent 1 (single detergent) ([2]; endpoint PCR, detergent alone)	effect on stability of Pfu fusion DNA polymerase (FIG. 6) [3]	QPCR amplification efficiency, total fluorescence and Ct values versus 0.1% Triton X100 (FIG. 7) ([4]; 0.5% detergent)	amplification efficiency, total fluorescence and Ct values (FIG. 8) ([4]; 0.5% detergent, aldolase and GDH gene targets)	Effective range, Detergent 1 (single detergent), SYBR Green QPCR ([4]; detergent alone)	Optimal range, Detergent 1 (single detergent), SYBR Green QPCR ([4]; detergent alone)	effect on Taq DNA polymerase (Taq DNA polymerase)
C[C@H](CCC(=O)NCCC[N+](C)(C)CC(O)CS(=O)(=O)[O-])[C@H]1CC[C@H]2[C@@H]3[C@H](O)C[C@@H]4C[C@H](O)CC[C@]4(C)[C@H]3C[C@H](O)[C@]12C (stereo partly shown) [CHAPSO]	little amplification	did not show observable levels of PCR product	0.15-0.3%	somewhat more effective	dramatically improved	CHAPSO (0.05-0.3%)	CHAPSO (0.1%)	CHAPSO (0.1%)	CHAPSO (0.1-0.8%)	CHAPSO (0.15-0.35%)	enhance the stability	comparable	favorable	CHAPSO (0.1-0.75%)	CHAPSO (0.2-0.5%)	–
NP-40	–	–	–	–	–	–	–	–	–	–	–	–	–	–	–	stabilize
